Test results from patent publication US20130108713A1 (RYAOMA, INC., priority 2008, published 2013).

Experiments:
[1] = system: metastatic melanoma-affected patients
Procedure: The melanoma-affected patients are treated as follows. […] The treatment course spans 15 to 20 intravenous infusions. When a positive dynamic is achieved, the treatment course is followed until the pronounced effect is produced.
Along with an estimated rate of objected responses of therapeutical measures, a comparison was made between such indexes as the quality of life, endurability of therapeutic treatment, and total survivability. The study included the patients of the age period between 18-75 with histologically confirmed diagnoses of skin related melanomas. None of the patients had yet gone through chemotherapy. […] The treatment process continued to the point where the disease started progressing or side-effects developed that required the therapeutic measures to be terminated.
Dacarbazine in a dose of 2500 mg/mL was prescribed in a form of infusion that lasted sixty minutes (60 min.), once a day during successive five days, every four weeks on the 1-5 and 29-33rd days respectively. Repeated courses were carried out only in the patients whose progressing disease was not recorded.

albumin = experiment: Albumin coagulation, optic density on photoelectric calorimeter; type: biochemical; conditions: for coagulation of the protein (in words): albumin solution
Procedure: In the coagulation studies, albumin was used for the protein.
In the table, the calculated concentrations of the substances being investigated are listed.
One (1) ml of the tannin solution was put into the test-tube. One (1) ml of the albumin solution was added. 5 ml of water were added. The mixture was shaken. An optic density of the solution was determined on KΦK-2(photoelectric calorimeter) when Δ=260 nm, in cuvette=1 cm in 5, 10, 15, 20, 25 min.
Each weight was repeated three times and the optical density measured.
In addition, the control experiment was conducted with 1 ml of the albumin solution, 0.001 g of potassium iodide, 5 ml of water.

[2] = reaction with PSA; cited from earlier work
[3] = treated patients, hematological side-effect

SMILES	frequency of objective responses ([1]; melanoma patients, responses recorded in skin-based metastatic melanomas)	neuropenia recorded [1, 3]	trombocytopenia recorded [1, 3]	optic density (albumin; 0.001 g of potassium iodide added to the tannin/albumin solution)	coagulation of the protein (in words) (albumin)	optic density (albumin; another 0.001 g of potassium iodide added to the tannin/albumin solution)	turbidity in the solution (albumin; control: 1 ml albumin solution, 0.001 g potassium iodide, 5 ml water, one hour later)	optic density d5 (albumin; 1 ml tannin solution + 1 ml albumin solution + 5 ml water, 260 nm, 1 cm cuvette, 5 min)	optic density d10 (albumin; same mixture, 10 min)	optic density d20 (albumin; same mixture, 20 min)	optic density d25 (albumin; same mixture, 25 min)	period of precipitation for the reaction (albumin; tannin + albumin)	moles of N-acetylneuraminic acid sedimented by each mole of tannic acid [2]
CN(C)/N=N/c1[nH]cnc1C(N)=O [dacarbazine]	23%	14 % of observations	57 % of the patients										
[I-].[K+] [potassium iodide]				0.87	did not possess coagulating capacity	0.92	no turbidity						
O=C(OC[C@H]1O[C@@H](OC(=O)c2cc(O)c(O)c(OC(=O)c3cc(O)c(O)c(O)c3)c2)[C@H](OC(=O)c2cc(O)c(O)c(OC(=O)c3cc(O)c(O)c(O)c3)c2)[C@@H](OC(=O)c2cc(O)c(O)c(OC(=O)c3cc(O)c(O)c(O)c3)c2)[C@@H]1OC(=O)c1cc(O)c(O)c(OC(=O)c2cc(O)c(O)c(O)c2)c1)c1cc(O)c(O)c(OC(=O)c2cc(O)c(O)c(O)c2)c1 [tannin, tannic acid]					No coagulation			0.11	0.16	0.19	0.19	20 min	three
